Data from US20170318812A1, “Plant and Crop Growth Regulating/Biostimulant Formulations and Methods of Use” (Arysta Lifescience North America, LLC, priority 2014, published 2017).
“And” between values parts separate entries of the source, which are not always exact repeats. Equal values may be shown once.

Tests used:
Type in all cases: in vivo
[1] = tested on: GLXMA Glycine max (Soybean); test: Ipfencarbazone biostimulant effect, early post emergence foliar application, greenhouse pots, plant height: soybean; conditions: for Plant HEIGHT, Mean / Plant HEIGHT, single plots: Soybean BMXPOTENCIA
Excerpt: (§1) The original objective of this Example was to evaluate the herbicidal effect of ipfencarbazone when applied as a post emergent treatment to a range of selected crops and weeds. Unexpectedly, crop plant growth stimulation was observed. The actual species of weeds and crops are listed in the summary data tabulated below and in FIGS. 1-13. By convention each plant species has a Bayer code (5-letter name) with the scientific name for the plant referenced in FIGS. 1-13. In each Figure, each tray contains the same configuration of weeds and/or crops. In each Figure there is one replication of each treatment (six treatments in total). The top three photographs in each Figure show the Bayer Codes and bottom three photographs are aligned with the top three facilitating viewing of the same plant species. Throughout the Examples various abbreviations as conventional shorthand notation and will be appreciated by those skilled in the art. Some exemplary abbreviations include, “CV”=Co-efficient of Variation,” “LSD”=Least Significant Difference” (G/L (gram per L) AND GA/L (gram of active ingredient per L); “SC”=suspension concentrate formulation. The diluent in all treatments was water. By convention factors that are identical in all treatments (e.g. diluent and surfactant) are not listed in each treatment.
(§2) Methods: The indicated size pots (see Tables below) are filled with a specific soil, the soil properties being indicated below. The referenced crops and weeds are planted by hand in each pot. […] The experiments include six treatments each replicated three times on each crop/weed species. At a specific time after emergence each crop and weed species was treated with ipfencarbazone plus a non-ionic surfactant (NIS). In the present Example, the surfactant employed was ENERGIC™ (non-ionic surfactant). The application timing is indicated in each of the Tables (1 or 2 leaf stage) below. Ipfencarbazone plus surfactant was diluted in water and applied at a rate equivalent to about 250 L/ha. Ipfencarbazone was applied using a track sprayer. After treatment, the pots were randomized in a greenhouse. At each assessment (indicated by “days after treatment” or DAT) the height of each plant was measured. The letters next to each mean indicate the level of statistical significance.
(§3) Replications: 3, Untreated treatments: 1, Design: Randomized Complete Block (RCB), Treatment units: Treated ‘Plot’ experimental unit size, Dry Form. Unit: %, Treated ‘Plot’ experimental unit size Width: 1 meter, Treated ‘Plot’ experimental unit size Length: 1.4 meters, Application volume: 250 L/ha, Mix size: 0.15 liters, […]

[2] = tested on: GOSHI Gossypium hirsutum (American upland cotton); test: Ipfencarbazone biostimulant effect, early post emergence foliar application, greenhouse pots, plant height: cotton; conditions: for Plant HEIGHT, Mean / Plant HEIGHT, single plots: Cotton 975WS; for HEIGHT, percent of untreated check (APoC) / HEIGHT, treatment mean: GOSHI 975WS
Excerpt: as §1, §2, §3

[3] = tested on: selected crops and weeds; test: Post emergent treatment of a range of selected crops and weeds (FIGS. 1-13), measured and visual observation
Excerpt: as §1, §2

[4] = GLXMA BMXPOTENCIA, 1000 g ai/ha, 28 DA-A
[5] = 28 DA-A, 62.5 g ai/ha + Energic NIS 0.2 % v/v
[6] = 28 DA-A, 125 g ai/ha + Energic NIS 0.2 % v/v
[7] = 28 DA-A, 250 g ai/ha + Energic NIS 0.2 % v/v
[8] = 28 DA-A, 500 g ai/ha + Energic NIS 0.2 % v/v
[9] = 28 DA-A, 1000 g ai/ha + Energic NIS 0.2 % v/v
[10] = 15 DA-A, 62.5 g ai/ha + Energic NIS 0.2 % v/v
[11] = 15 DA-A, 125 g ai/ha + Energic NIS 0.2 % v/v
[12] = 15 DA-A, 250 g ai/ha + Energic NIS 0.2 % v/v
[13] = 15 DA-A, 500 g ai/ha + Energic NIS 0.2 % v/v

Question: For CC(C)N(C(=O)n1cnn(-c2ccc(Cl)cc2Cl)c1=O)c1ccc(F)cc1F [ARY-0572-001, ipfencarbazone], which “HEIGHT, single plots (replicates)” value ([1]; GLXMA BMXPOTENCIA, 1000 g ai/ha, 15 DA-A, plots 106, 203, 304) is on record?
Answer: 6.7 cm and 10.0 cm and 9.3 cm

Question: And the “HEIGHT, percent of untreated check (APoC)” value (“HEIGHT, percent” below) [1, 4]?
Answer: (71.3%)

Question: And the “HEIGHT, treatment mean” value [1, 4]?
Answer: 14.9 bc cm

Question: And the “Plant HEIGHT, Mean” value [1, 5]?
Answer: 30.6 cm

Question: What about the “Plant HEIGHT, single plots” value [1, 5] of the same molecule?
Answer: 32.7 cm and 29.3 cm and 29.7 cm

Question: What about the “Plant HEIGHT, Mean” value [1, 6] of the same molecule?
Answer: 23.8 cm

Question: What about the “Plant HEIGHT, single plots” value [1, 6] of the same molecule?
Answer: 20.7 cm and 22.7 cm and 28.0 cm

Question: And the “Plant HEIGHT, Mean” value [1, 7]?
Answer: 18.3 cm

Question: What about the “Plant HEIGHT, single plots” value [1, 7] of the same molecule?
Answer: 20.3 cm and 21.7 cm and 13.0 cm

Question: What about the “Plant HEIGHT, Mean” value [1, 8] of the same molecule?
Answer: 13.2 cm

Question: What about the “Plant HEIGHT, Mean” value [1, 9] of the same molecule?
Answer: 14.9 cm

Question: And the “Plant HEIGHT, single plots” value [1, 9]?
Answer: 9.0 cm and 18.0 cm and 17.7 cm

Question: What about the “Plant HEIGHT, Mean” value [2, 10] of the same molecule?
Answer: 16.1 cm

Question: What about the “Plant HEIGHT, single plots” value [2, 10] of the same molecule?
Answer: 19.2 cm and 13.7 cm and 15.3 cm

Question: And the “Plant HEIGHT, Mean” value [2, 11]?
Answer: 11.9 cm

Question: What about the “Plant HEIGHT, single plots” value [2, 11] of the same molecule?
Answer: 9.7 cm and 12.0 cm and 14.0 cm

Question: What about the “Plant HEIGHT, Mean” value [2, 12] of the same molecule?
Answer: 9.5 cm

Question: What about the “Plant HEIGHT, single plots” value [2, 12] of the same molecule?
Answer: 9.3 cm and 9.2 cm and 10.0 cm

Question: And the “Plant HEIGHT, Mean” value [2, 13]?
Answer: 7.7 cm

Question: What about the “Plant HEIGHT, single plots” value [2, 13] of the same molecule?
Answer: 9.2 cm and 6.3 cm and 7.7 cm

Question: What about the “Plant HEIGHT, Mean” value ([2]; 15 DA-A, 1000 g ai/ha + Energic NIS 0.2 % v/v) of the same molecule?
Answer: 6.9 cm

Question: And the “Plant HEIGHT, Mean” value [2, 5]?
Answer: 24.9 cm

Question: And the “Plant HEIGHT, single plots” value [2, 5]?
Answer: 26.0 cm and 27.7 cm and 21.0 cm

Question: What about the “Plant HEIGHT, Mean” value [2, 6] of the same molecule?
Answer: 17.7 cm

Question: What about the “Plant HEIGHT, single plots” value [2, 6] of the same molecule?
Answer: 19.0 cm and 17.3 cm and 16.7 cm

Question: And the “Plant HEIGHT, Mean” value [2, 7]?
Answer: 15.8 cm

Question: What about the “Plant HEIGHT, Mean” value [2, 8] of the same molecule?
Answer: 13.2 cm

Question: And the “Plant HEIGHT, Mean” value [2, 9]?
Answer: 8.9 cm

Question: What about the “HEIGHT, percent” value ([2]; 62.5 g ai/ha, 15 DA-A) of the same molecule?
Answer: (137.6%)

Question: What about the “HEIGHT, treatment mean” value ([2]; 62.5 g ai/ha, 15 DA-A) of the same molecule?
Answer: 16.1 a cm

Question: What about the “HEIGHT, percent” value ([2]; 62.5 g ai/ha, 28 DA-A) of the same molecule?
Answer: (154.5%)

Question: And the “HEIGHT, treatment mean” value ([2]; 62.5 g ai/ha, 28 DA-A)?
Answer: 24.9 a cm

Question: And the “HEIGHT, percent” value ([2]; 125 g ai/ha, 15 DA-A)?
Answer: (101.9%)

Question: And the “HEIGHT, treatment mean” value ([2]; 125 g ai/ha, 15 DA-A)?
Answer: 11.9 b cm

Question: What about the “HEIGHT, percent” value ([2]; 125 g ai/ha, 28 DA-A) of the same molecule?
Answer: (109.7%)

Question: What about the “HEIGHT, treatment mean” value ([2]; 125 g ai/ha, 28 DA-A) of the same molecule?
Answer: 17.7 ab cm

Question: And the “HEIGHT, percent” value ([2]; 250 g ai/ha, 15 DA-A)?
Answer: (81.4%)

Question: And the “HEIGHT, treatment mean” value ([2]; 250 g ai/ha, 15 DA-A)?
Answer: 9.5 bc cm

Question: What about the “HEIGHT, percent” value ([2]; 250 g ai/ha, 28 DA-A) of the same molecule?
Answer: (97.9%)

Question: What about the “HEIGHT, treatment mean” value ([2]; 250 g ai/ha, 28 DA-A) of the same molecule?
Answer: 15.8 bc cm

Question: What about the “HEIGHT, percent” value ([2]; 500 g ai/ha, 15 DA-A) of the same molecule?
Answer: (66.2%)

Question: And the “HEIGHT, treatment mean” value ([2]; 500 g ai/ha, 15 DA-A)?
Answer: 7.7 c cm

Question: What about the “HEIGHT, percent” value ([2]; 500 g ai/ha, 28 DA-A) of the same molecule?
Answer: (82.1%)

Question: And the “HEIGHT, treatment mean” value ([2]; 500 g ai/ha, 28 DA-A)?
Answer: 13.2 bc cm

Question: And the “HEIGHT, percent” value ([2]; 1000 g ai/ha, 15 DA-A)?
Answer: (59.5%)

Question: And the “HEIGHT, treatment mean” value ([2]; 1000 g ai/ha, 15 DA-A)?
Answer: 6.9 c cm

Question: What about the “HEIGHT, percent” value ([2]; 1000 g ai/ha, 28 DA-A) of the same molecule?
Answer: (55.2%)

Question: What about the “HEIGHT, treatment mean” value ([2]; 1000 g ai/ha, 28 DA-A) of the same molecule?
Answer: 8.9 c cm

Question: What about the “effect on crop plant seedlings (growth)” value ([3]; about 60 to about 125 grams per hectare, corn, wheat, soybean and dry bean seedlings) of the same molecule?
Answer: positive effect

Question: And the “impact on plant growth” value ([3]; applied post emergent, all crop and weed species evaluated, all use rates)?
Answer: significant, positive impact on plant growth

Question: What about the “growth rate (biomass, leaf area, plant height)” value ([3]; early post treatment, wheat, sorghum, corn, soybean, dry bean and cotton) of the same molecule?
Answer: meaningful increase in growth rate

Question: What about the herbicidal effect ([3]; higher rates, 500 and 1000 g a.i./ha, specific crops and weeds) of the same molecule?
Answer: some herbicidal effect

Question: And the “plant color (visual observation)” value ([3]; treated plants compared to the untreated control)?
Answer: significant greening effect
